Measured values published in paper PMC4559881 (Molecular Neurodegeneration, 2015).
Like-named read-outs stand apart in the source and are kept apart here.

Assays:
[1] = Blood pharmacokinetics and brain penetration in the rat, 30 μmol/kg oral; assay type: in vivo; conditions: for Cmax / AUC(0-t): male, Sprague Dawley, 30 umol/kg
Text: In vivo blood pharmacokinetics and brain penetration was investigated in the rat.

[2] = Dog PK/PD study: NB-360 exposure in blood and CSF; assay type: in vivo; conditions: male, Beagle, blood, po, 0.5 mg/kg p.o.
Experimental: Blood and CSF were sampled before treatment (at -24 and at -1 h) and at various time points after oral dosing, up to 168 h.
(§1) Brain samples were homogenized with 2 mM KH2PO4 buffer (approx. 1/2, w/v). […] The LLOQ ranged between 0.4 and 2 ng/mL in blood and 1.2 ng/g and 6 ng/g in brain.
Rat studies used male Charles River Sprague-Dawley rats of approx. 300 g body weight. Female transgenic APP51/16 mice (C57BL/6 background strain) were bred in-house. APP51/16 mice express human wild-type APP751 under the control of a Thy-1 expression cassette in brain neurons, and are characterized by mostly cortical, but few vascular amyloid-β deposits. […] Dosing was per os in a dose volume of 10 ml/kg for mice and 5 ml/kg for rats. […] Rodents were deeply anesthetized for CSF sampling from the cisterna magna, accessed through the exposed atlanto-occipital membrane. CSF was harvested into protein lo-bind Eppendorf tubes and frozen on dry ice. Animals were decapitated while anesthetized and blood and brain samples collected. Brains were briefly rinsed in PBS, quickly wet-dissected and samples frozen on a metal plate precooled on dry ice. All samples were stored at -80 ° C until analysis. The dog study was carried out at Charles River Laboratories, Canada. Male dogs were used with n = 4 per group. A cannula with an access port was implanted under anesthesia, to allow serial CSF sampling from the lateral ventricle. […]

APP51/16 transgenic mice = test: Chronic 6-week treatment of APP51/16 mice: APP metabolites, Aβ deposition and neuroinflammation; assay type: in vivo, mouse; conditions: for CSF Aβ40 reduction / CSF Aβ42 reduction: 100 μmol/kg/d 6 weeks
Experimental: Frozen rodent forebrains were homogenized in 9 volumes of ice-cold Tris-buffered saline (pH 7.4) containing Complete protease inhibitor cocktail (Roche Diagnostics, Penzberg, Germany) using a Sonifier 450 (Branson) and stored in aliquots at -80 °C. Triton X-100 soluble Aβ was extracted by mixing 50 μl 2 % Triton X-100 with 50 μl homogenate, incubating for 15 min on ice with vortexing, followed by ultracentrifugation at 100000xg for 15 min. The clear supernatant was diluted to a final forebrain dilution of 1:100 and used for analysis. For the extraction of insoluble amyloid peptides, 50 μl forebrain homogenate was mixed with 117 μl of 100 % formic acid and stored on ice for 15 min with vortexing. Samples were neutralized with 950 μl 1 M Tris base, containing Complete protease inhibitor cocktail (Roche, Basle, Switzerland) and stored overnight at room temperature. The supernatant after 15 min centrifugation at 14000 rpm was used for analysis.
Aβ38, 40 and 42 were determined using the electro-chemiluminescence immuno assay kits from Meso Scale Discovery (Rockville, MD, USA) in either singlet or triplex format. Samples and standards were prepared according to the manufactures protocols. The kit based on the antibody 4G8 was used for rat forebrain and CSF samples, and kits based on 6E10 were used for dog CSF or plasma and APP51/16 brain and CSF samples. Soluble APPα and sAPPβ from APP51/16 mice were determined from the 100000xg supernatant and analyzed with Meso Scale Discovery commercial kits. C-terminal fragments C83 and C99 were determined from Western blots. Forebrain homogenates dephosphorylated with lambda protein phosphatase as described and run on a 10 % Tris-bicine gel with 8 M urea. After transfer to Immobilon P membranes (Bio-Rad Bedford MA USA), bands were probed with APP C8 antibody (recognizing the C-terminus of APP) and detected with goat anti-mouse IgG Fab fragment AlexaFluor680 (Invitrogen). The same gel was used to visualize Aβ1-38, 1-40, and 1-42 using the N-terminal antibody beta1 and goat anti rabbit IgG IRdye 800CW (Odyssey). Full-length human APP was detected using an in house immunoassay based on the MSD ECL system as described.

[3] = Chronic treatment of mice: observations (mortality, hair colour, retina); assay type: in vivo; conditions: APP51/16 mice, 100 μmol/kg p.o. once daily
[4] = Pharmacokinetics after i.v. and oral application, rat
Experimental: Pharmacokinetic studies used male Sprague Dawley rats, C57BL6 mice and Beagle dogs, obtained from Charles River (France, rodents) and Marshall (Italy, dogs). […] Blood was collected i.v., by sublingual bleeding or at sacrifice whereas a serial blood sampling allowed obtaining individual PK profiles in these species. Blood samples were taken between 5 min (intravenous) and 15 min (oral) up to 24 h (mice), 48 h (rat) and 408 h (dog).
The absorption and disposition parameters were estimated by a non-compartmental analysis of the mean blood concentration (n = 3 mice) or individual concentration (rats, dogs) versus time profile after oral and intravenous administration.

[5] = Chronic 6-week treatment of APP51/16 mice: NB-360 blood exposure; conditions: female, APP51/16 (C57BL/6 background), mouse, po, 100 μmol/kg
Experimental: as §1
Rat studies used male Charles River Sprague-Dawley rats of approx. 300 g body weight. Female transgenic APP51/16 mice (C57BL/6 background strain) were bred in-house. APP51/16 mice express human wild-type APP751 under the control of a Thy-1 expression cassette in brain neurons, and are characterized by mostly cortical, but few vascular amyloid-β deposits. […] Dosing was per os in a dose volume of 10 ml/kg for mice and 5 ml/kg for rats. […] Rodents were deeply anesthetized for CSF sampling from the cisterna magna, accessed through the exposed atlanto-occipital membrane. CSF was harvested into protein lo-bind Eppendorf tubes and frozen on dry ice. Animals were decapitated while anesthetized and blood and brain samples collected. Brains were briefly rinsed in PBS, quickly wet-dissected and samples frozen on a metal plate precooled on dry ice. All samples were stored at -80 ° C until analysis. The dog study was carried out at Charles River Laboratories, Canada. Male dogs were used with n = 4 per group. A cannula with an access port was implanted under anesthesia, to allow serial CSF sampling from the lateral ventricle. Dogs were allowed to recover from the surgery for 2 weeks before the start of the experiment.

[6] = approximate area under the effect curve, 0, 4, 24 h after last dose
[7] = male, Sprague Dawley, blood, iv, 2 umol/kg

Cc1cc(C#N)cnc1C(=O)Nc1ccc(F)c([C@]2(C)CO[C@@](C)(C(F)(F)F)C(N)=N2)c1 [NB-360]
unbound AUC 0-24 h blood ([1]; blood, corrected for nonspecific binding): 0.63 µM·h
unbound AUC 0-24 h brain ([1]; brain, corrected for nonspecific binding): 0.54 µM·h
Cmax ([1]; blood): 1620 nM
AUC(0-t) ([1]; blood, read-out: AUC 0-24 h blood): 10.2 µM·h
Cmax ([1]; brain): 4010 nM
AUC(0-t) ([1]; brain, read-out: AUC 0-24 h brain): 23.6 µM·h
concentration at 168 h [2]: 23 ± 31 nM
CSF Aβ40 reduction (APP51/16 transgenic mice; 4 h after the dose): > 90%
CSF Aβ42 reduction (APP51/16 transgenic mice; 4 h after the dose): > 90%
CSF Aβ40 reduction (APP51/16 transgenic mice; 24 h): about 60%
CSF Aβ42 reduction (APP51/16 transgenic mice; 24 h): about 60%
C99 reduction in Triton TX-100 forebrain extract (APP51/16 transgenic mice; 4 h after the last dose): about 80%
sAPPβ reduction in Triton TX-100 forebrain extract (APP51/16 transgenic mice; 4 h after the last dose): about 80%
C99 reduction in Triton TX-100 forebrain extract (APP51/16 transgenic mice; 24 h after the last dose): 57%
sAPPβ reduction in Triton TX-100 forebrain extract (APP51/16 transgenic mice; 24 h after the last dose): 70%
Formic-acid extracted Aβ 1-38 in forebrain homogenate (APP51/16 transgenic mice; NB-360 group, Mean ± SEM, N 14): 77.0 ± 24.9 pmol/g forebrain
Formic-acid extracted Aβ 1-40 in forebrain homogenate (APP51/16 transgenic mice; NB-360 group, Mean ± SEM, N 14): 197.3 ± 43.4 pmol/g forebrain
Formic-acid extracted Aβ 1-42 in forebrain homogenate (APP51/16 transgenic mice; NB-360 group, Mean ± SEM, N 14): 106.6 ± 20.9 pmol/g forebrain
Plasma Aβ40 reduction, AUEC24h (APP51/16 transgenic mice; approximate area under the effect curve after last dose): 70%
CSF Aβ40 reduction, AUEC24h (APP51/16 transgenic mice; [6]): approximately 75%
CSF Aβ42 reduction, AUEC24h (APP51/16 transgenic mice; [6]): approximately 75%
CSF sAPPβ reduction, AUEC24h (APP51/16 transgenic mice; [6]): approximately 75%
C83 average increase above vehicle control (APP51/16 transgenic mice; forebrain extract, 4 and 24 h): 50%
sAPPα average increase above vehicle control (APP51/16 transgenic mice; forebrain extract, 4 and 24 h): 50%
Aβ 1-38, NB-360 group, change vs baseline (APP51/16 transgenic mice; formic-acid extract): -33.5 % p = 0.39
Aβ 1-38, NB-360 group, change vs vehicle (APP51/16 transgenic mice; formic-acid extract): -68.0 % p = 0.015
Aβ 1-40, NB-360 group, change vs baseline (APP51/16 transgenic mice; formic-acid extract): -16.1 % p = 0.52
Aβ 1-40, NB-360 group, change vs vehicle (APP51/16 transgenic mice; formic-acid extract): -64.5 % p = 0.003
Aβ 1-42, NB-360 group, change vs vehicle (APP51/16 transgenic mice; formic-acid extract): -69.3 % p = 0.0006
number of Aβ deposits (large plaques, small plaques, granules) per 3 cortical sections (APP51/16 transgenic mice; irrespective of the deposit size): indistinguishable from baseline
total area of cortical region of interest stained positively for NT12 (APP51/16 transgenic mice; mean ± SEM, p = 0.093 vs baseline, p <0.0001 vs vehicle): 0.209 ± 0.054%
number of Iba-1 positive cell clusters in the cortex (APP51/16 transgenic mice; relative to vehicle-treated mice): substantially lower
first appearance of grey hair patches [3]: 2-3 weeks
mortality during treatment ([3]; 6 weeks): Two out of 17 mice in the treatment group died
Vol. of Distribution ([4]; 2 μmol/kg i.v.): 10.2 L/kg
clearance [4, 7]: 52 mL/min/kg
half-life [4, 7]: 2.7 h
bioavailability ([4]; male, Sprague Dawley, blood, po, 6 umol/kg): 92%
concentration at 4 h [5]: 3200 nM
concentration at 24 h [5]: 130 nM
